Assay results published in patent publication US12350260B2 (priority 2019, dated 2025).
Several values for one entry are separate records, joined by “and”; a condition that tells them apart may be missing. Equal entries are not always repeated.

How the values were obtained:
[1] = in vivo, cited from earlier work
PAR-2 [2] = molecular target: T1, PAR-2 (Homo sapiens, UniProt P55085); conditions: cited from earlier work
PAR-2 [3] = molecular target: T1, PAR-2; conditions: cited from earlier work; remark: listed apart in the source
sensory neurons = type: cell-based, rat
[4] = test system: co-cultured sensory neurons and keratinocytes; type: cell-based, rat DRG neurons, human keratinocytes
DRG neurons = type: cell-based, rat
[5] = test system: primary human epidermal keratinocytes; type: cell-based
[6] = test system: co-cultured DRG neurons and keratinocytes; type: cell-based, rat DRG neurons, human keratinocytes
PAR-2 [7] = type: cell-based, rat
[8] = not told; cited from earlier work

T1 sequence (P55085 26-397): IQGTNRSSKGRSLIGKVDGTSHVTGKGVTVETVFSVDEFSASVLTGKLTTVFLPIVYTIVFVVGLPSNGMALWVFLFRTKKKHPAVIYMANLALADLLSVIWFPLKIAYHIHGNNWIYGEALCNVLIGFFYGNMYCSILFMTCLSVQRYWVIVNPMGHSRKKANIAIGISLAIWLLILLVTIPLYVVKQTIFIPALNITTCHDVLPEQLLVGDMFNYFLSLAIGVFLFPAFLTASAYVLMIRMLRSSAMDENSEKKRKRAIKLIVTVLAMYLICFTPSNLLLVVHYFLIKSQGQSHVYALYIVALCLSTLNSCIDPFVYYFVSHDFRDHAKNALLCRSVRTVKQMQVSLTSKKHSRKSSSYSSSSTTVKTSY

Question: What does the source list for `OC[C@@H](O)[C@@H](O)[C@H](O)[C@H](O)CO` [mannitol]?
Answer: effectiveness in severe cases of poisoning supported early ([1]; iv): effectiveness; effectiveness in non-severe forms of intoxication [1]: not effective

Question: With `COc1ccccc1OCCNCC(O)COc1cccc2[nH]c3ccccc3c12` (centres unmarked) [Carvedilol] as the compound, how does the “PAR-2 calcium signaling / calcium mobilization” value (PAR-2 [2]) read?
Answer: The value was “inhibit”.

Question: What about the ERK1/2 phosphorylation (PAR-2 [3]) of the same compound?
Answer: The ERK1/2 phosphorylation was “inhibit”.

Question: Which “PAR-2 calcium signaling / calcium mobilization” value (PAR-2 [2]) does the source give for `CC[C@H](C)[C@H](NC(=O)[C@H](CC1CCCCC1)NC(=O)c1ccno1)C(=O)N1CCC2(CCc3ccccc32)CC1` [GB88] here?
Answer: Its value is “inhibit”.

Question: Which results are given for `CCOC(=O)N1CCC(=C2c3ccc(Cl)cc3CCc3cccnc32)CC1` [Loratadine]?
Answer: PAR-2 calcium signaling / calcium mobilization (PAR-2 [2]): inhibit; ERK1/2 phosphorylation (PAR-2 [3]): inhibit

Question: With `Cc1c(C(=O)Nc2cccc(C(F)(F)F)c2)cc(-c2ccccc2)n1CCCN1CCOCC1` [HC-067047] as the compound, how does the “normalized amplitude values in each phase (FIGS. 9B, 9D, 9F)” value (sensory neurons) read?
Answer: Its value is “No significant modification”.

Question: And the “normalized percentage of cells responding to PbTx-1 with the first peak” value (sensory neurons)?
Answer: Its value is 59.4±11.5%.

Question: What about the “normalized percentage of cells responding to PbTx-1 with the plateau” value (“normalized percentage … with the plateau” below) (sensory neurons) of the same compound?
Answer: Its value is 35.0±16.1%.

Question: What about the “normalized percentage of cells responding to PbTx-1 with the second peak” value (“normalized percentage … with the second peak” below) (sensory neurons) of the same compound?
Answer: Its value is 35.6±11.5%.

Question: And the “PbTx-1-induced SP release with pre-treatment (normalized levels)” value [4]?
Answer: Its value is 58.7±14.5% and 41.3±14.5%.

Question: What does the source list for `Cl.Cn1cc(C2=C(c3c4n(c5ccccc35)CCC(CN)C4)C(=O)NC2=O)c2ccccc21` (centres unmarked) [BimX, Bisindolylmaleimide X hydrochloride]?
Answer: normalized amplitude values in each phase (FIGS. 9B, 9D, 9F) (sensory neurons): No significant modification; normalized percentage of cells responding to PbTx-1 with the first peak (sensory neurons): did not decrease; normalized percentage of cells responding to PbTx-1 with the second peak (sensory neurons): 67.7±7.5%; PbTx-1-induced SP release with pre-treatment (normalized levels) [4]: 37.4±5.9%

Question: With `CCc1nn(CCCN2CCN(c3cccc(Cl)c3)CC2)c(=O)n1CCOc1ccccc1` [Nefazodone] as the compound, how does the “PAR-2 calcium signaling / calcium mobilization” value (PAR-2 [2]) read?
Answer: The value was “inhibit”.

Question: And the ERK1/2 phosphorylation (PAR-2 [3])?
Answer: The ERK1/2 phosphorylation was “inhibit”.

Question: With `C1CCC[C@H]2CCCN3CC[C@@H](CCCCCC[C@@H]4CCCN5CC[C@@H](CC1)O[C@@H]45)O[C@@H]23` [Xestospongin C] as the compound, how does the “normalized amplitude values in each phase (FIGS. 9B, 9D, 9F)” value (sensory neurons) read?
Answer: The value was “No significant modification”.

Question: And the “normalized percentage of cells responding to PbTx-1 with the first peak” value (sensory neurons)?
Answer: The value was “did not decrease”.

Question: What about the “normalized percentage … with the second peak” value (sensory neurons) of the same compound?
Answer: The value was 62.5±14.7%.

Question: And the “PbTx-1-induced SP release with pre-treatment (normalized levels)” value [4]?
Answer: The value was 35.5±9.7%.

Question: With `COc1ccc(CCN2CCC(Nc3nc4ccccc4n3Cc3ccc(F)cc3)CC2)cc1` [Astemizole] as the compound, how does the “PAR-2 calcium signaling / calcium mobilization” value (PAR-2 [2]) read?
Answer: The value was “inhibit”.

Question: And the ERK1/2 phosphorylation (PAR-2 [3])?
Answer: Its ERK1/2 phosphorylation is “inhibit”.

Question: Which results are given for “2-aminothiazol-4-yl-LIGRL-NH2 ({2‑aminothiazol‑4‑yl}-LIGRL-NH2)”?
Answer: PAR-2 calcium signaling / calcium mobilization (PAR-2 [2]): inhibit; ERK1/2 phosphorylation (PAR-2 [3]): inhibit

Question: For `NC1=N[C@H](O)[C@H]2[C@H]3O[C@]4(O)O[C@@H]([C@@H](O)[C@@]2(N1)[C@@H]4O)[C@]3(O)CO` [TTX, Tetrodotoxin], which “normalized amplitude of the first peak in responding cells (% of P-CTX-2 alone)” value (DRG neurons) is on record?
Answer: The value was 53.6±8.0% and 47.8±7.2%.

Question: And the “normalized amplitude values of the plateau in responding cells (% of P-CTX-2 alone)” value (DRG neurons)?
Answer: Its value is 53.2±1.3% and 84.8±6.6%.

Question: What about the “normalized percentage of cells responding with the first peak (% of P-CTX-2 alone)” value (DRG neurons) of the same compound?
Answer: Its value is 34.9±13.4% and 41.6±12.5%.

Question: What about the “normalized second peak amplitude in responding cells (% of P-CTX-2 alone)” value (DRG neurons) of the same compound?
Answer: The value was 33.7±3.5% and 61.9±16.1%.

Question: And the “average ratio of the P-CTX-2-mediated calcium signal (ΔF/F0)” value [5]?
Answer: The value was 0.34±0.11.

Question: And the “decrease of the average ratio of the P-CTX-2-mediated calcium signal” value [5]?
Answer: The value was “approximately 70%”.

Question: What about the “P-CTX-2-induced SP release, reduced to (% of P-CTX-2 alone)” value [6] of the same compound?
Answer: Its value is 29.3±7.3% and 53.1±11.3%.

Question: And the “normalized amplitude of the second peak” value (sensory neurons)?
Answer: The value was 3.4±3.4%.

Question: And the “normalized percentage of cells responding to PbTx-1 with the first peak” value (sensory neurons)?
Answer: The value was 65.20±14.50% and 34.40±21.24%.

Question: What about the “membrane expression of PAR-2” value (PAR-2 [7]) of the same compound?
Answer: Its value is 95.3±4.9% and 92.7±1.3%.

Question: Which “P-CTX-2-induced SP release, reduced to (% of P-CTX-2 alone)” value [6] does the source give for `CC(C)C[C@H](NC(=O)[C@H](Cc1ccccc1)NC(=O)OCc1ccccc1)C(=O)C=O` [Z-FL-COCHO, Cbz-Phe-Leu-COCHO] here?
Answer: Its value is 13.1±6.1%.

Question: What about the “normalized percentage of cells responding to PbTx-1 with the first peak” value (sensory neurons) of the same compound?
Answer: The value was 48.2±11.1%.

Question: What about the “normalized percentage … with the plateau” value (sensory neurons) of the same compound?
Answer: Its value is 41.0±13.8%.

Question: What about the “normalized percentage … with the second peak” value (sensory neurons) of the same compound?
Answer: The value was 45.2±11.1%.

Question: What about the “PbTx-1-induced SP release, decreased to (% of PbTx-1 alone)” value [4] of the same compound?
Answer: Its value is 80.4±4.1%.

Question: What about the cell permeability [8] of the same compound?
Answer: Its cell permeability is “poorly cell-permeant”.

Question: For `CCC(C)[C@H](NC(=O)[C@H](CC1CCCCC1)NC(=O)c1ccno1)C(=O)N1CCC2(CCc3ccccc32)CC1` (some centres unmarked) [GB83], which “normalized amplitude of the first peak in responding cells (% of P-CTX-2 alone)” value (DRG neurons) is on record?
Answer: Its value is 31.2±4.2%.

Question: And the “normalized amplitude values of the plateau in responding cells (% of P-CTX-2 alone)” value (DRG neurons)?
Answer: Its value is 50.1±8.7%.

Question: What about the “normalized percentage of cells responding with a second peak (% of P-CTX-2 alone)” value (DRG neurons) of the same compound?
Answer: The value was 16.7±4.1%.

Question: And the “normalized percentage of cells responding with the first peak (% of P-CTX-2 alone)” value (DRG neurons)?
Answer: The value was 34.5±10.5%.

Question: And the “normalized percentage of neurons responding with a plateau (compared to P-CTX-2 alone)” value (DRG neurons)?
Answer: Its value is 7.9±3.3%.

Question: What about the “normalized second peak amplitude in responding cells (% of P-CTX-2 alone)” value (DRG neurons) of the same compound?
Answer: The value was 27.2±5.0%.

Question: And the “P-CTX-2-induced SP release, reduced to (% of P-CTX-2 alone)” value [6]?
Answer: Its value is 15.0±7.9%.

Question: What about the “normalized percentage of cells responding to PbTx-1 with the first peak” value (sensory neurons) of the same compound?
Answer: Its value is 75.7±7.28%.

Question: What about the “normalized percentage … with the plateau” value (sensory neurons) of the same compound?
Answer: The value was 37.7±7.7%.

Question: And the “normalized percentage … with the second peak” value (sensory neurons)?
Answer: Its value is 48.9±7.38%.

Question: And the “PbTx-1-induced SP release with pre-treatment (normalized levels)” value [4]?
Answer: The value was 47±8.2%.

Question: And the “PbTx-1-induced SP release, decreased to (% of PbTx-1 alone)” value [4]?
Answer: Its value is 40.9±7.4%.

Question: And the “inhibitory effect on PbTx-1-induced SP release” value [4]?
Answer: Its value is 45.3±6.9%.

Question: What about the “PAR-2 calcium signaling / calcium mobilization” value (PAR-2 [2]) of the same compound?
Answer: Its value is “inhibit”.
